Data: ChEMBL document CHEMBL1250443, “Microarray-based method for monitoring yeast overexpression strains reveals small-molecule targets in TOR pathway” (Nat Chem Biol, 2006)

Tests used:
[1] = Inhibition of TOR signaling in wild-type Saccharomyces cerevisiae transformed with overexpression plasmids assessed as decreased YPT11 gene expression by microarray
[2] = Inhibition of TOR signaling in wild-type Saccharomyces cerevisiae transformed with overexpression plasmids assessed as increased PDR3 gene expression by microarray
[3] = Inhibition of TOR signaling in wild-type Saccharomyces cerevisiae transformed with overexpression plasmids assessed as increased VID22 gene expression by microarray
[4] = Inhibition of TOR signaling in wild-type Saccharomyces cerevisiae transformed with overexpression plasmids assessed as decreased SUE1 gene expression by microarray
[5] = Inhibition of TOR signaling in wild-type Saccharomyces cerevisiae transformed with overexpression plasmids assessed as increased THI21 gene expression by microarray
[6] = Inhibition of TOR signaling in wild-type Saccharomyces cerevisiae transformed with overexpression plasmids assessed as decreased TPO4 gene expression by microarray
[7] = Inhibition of TOR signaling in wild-type Saccharomyces cerevisiae transformed with overexpression plasmids assessed as decreased PUT4 gene expression by microarray
[8] = Inhibition of TOR signaling in wild-type Saccharomyces cerevisiae transformed with overexpression plasmids assessed as increased SEC14 gene expression by microarray
[9] = Inhibition of TOR signaling in wild-type Saccharomyces cerevisiae transformed with overexpression plasmids assessed as decreased PTC4 gene expression by microarray
[10] = Inhibition of TOR signaling in wild-type Saccharomyces cerevisiae transformed with overexpression plasmids assessed as increased YCL049C gene expression by microarray
[11] = Inhibition of TOR signaling in wild-type Saccharomyces cerevisiae transformed with overexpression plasmids assessed as decreased YCR007C gene expression by microarray
[12] = Inhibition of TOR signaling in wild-type Saccharomyces cerevisiae transformed with overexpression plasmids assessed as increased YDL025C gene expression by microarray
[13] = Inhibition of TOR signaling in wild-type Saccharomyces cerevisiae transformed with overexpression plasmids assessed as increased YLR297W gene expression by microarray
[14] = Inhibition of TOR signaling in wild-type Saccharomyces cerevisiae transformed with overexpression plasmids assessed as increased ALD6 gene expression by microarray
[15] = Inhibition of TOR signaling in wild-type Saccharomyces cerevisiae transformed with overexpression plasmids assessed as increased WHI4 gene expression by microarray
[16] = Inhibition of TOR signaling in wild-type Saccharomyces cerevisiae transformed with overexpression plasmids assessed as increased ZDS2 gene expression by microarray
[17] = Inhibition of TOR signaling in wild-type Saccharomyces cerevisiae transformed with overexpression plasmids assessed as increased APN2 gene expression by microarray
[18] = Inhibition of TOR signaling in wild-type Saccharomyces cerevisiae transformed with overexpression plasmids assessed as decreased OLE1 gene expression by microarray
[19] = Inhibition of TOR signaling in wild-type Saccharomyces cerevisiae transformed with overexpression plasmids assessed as decreased NRG1 gene expression by microarray
[20] = Inhibition of TOR signaling in wild-type Saccharomyces cerevisiae transformed with overexpression plasmids assessed as decreased HOL1 gene expression by microarray

SMILES: CO[C@H]1C[C@@H]2CC[C@@H](C)[C@@](O)(O2)C(=O)C(=O)N2CCCC[C@H]2C(=O)O[C@H]([C@H](C)C[C@@H]2CC[C@@H](O)[C@H](OC)C2)CC(=O)[C@H](C)/C=C(\C)[C@@H](O)[C@@H](OC)C(=O)[C@H](C)C[C@H](C)/C=C/C=C/C=C/1C [SIROLIMUS]
- fold change (FC) [1]: -3.1
- fold change (FC) [2]: 14.4
- fold change (FC) [3]: 2.3
- fold change (FC) [4]: -2
- fold change (FC) [5]: 2.2
- fold change (FC) [6]: -5.8
- fold change (FC) [7]: -3.1
- fold change (FC) [8]: 4.1
- fold change (FC) [9]: -4
- fold change (FC) [10]: 2.1
- fold change (FC) [11]: -2.2
- fold change (FC) [12]: 2.5
- fold change (FC) [13]: 3.6
- fold change (FC) [14]: 3
- fold change (FC) [15]: 3.4
- fold change (FC) [16]: 13.6
- fold change (FC) [17]: 2.1
- fold change (FC) [18]: -3.2
- fold change (FC) [19]: -2.3
- fold change (FC) [20]: -4.5
